Where two headings read alike, the source gives them in different places.
Legend:
[1] = tested on: Staphylococcus aureus; experiment: mouse Staphylococcus aureus septicaemia model of infection; assay type: in vivo; settings: survival at day 7 of infected mice; single intraperitoneal dose of 100 mg/kg at 1 hour after intraperitoneal inoculation with a lethal dose of Staphylococcus aureus
Method: Some of the Examples were also tested for activity in a mouse Staphylococcus aureus septicaemia model of infection.

[2] = tested on: Bacillus subtilis 168CA; experiment: Minimum Inhibitory Concentration (MIC) testing, broth microdilution, Bacillus subtilis; assay type: cell-based; settings: Bacillus subtilis 168CA; read-out: Bacillus subtilis MICs Activity
Outline: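 MICs were scored A (≦8 μg/ml), B (16–64 μg/ml) or C (>64 μg/ml), read as the lowest concentration preventing visible growth by eye and spectrophotometry. Plates incubated overnight (16–20 h) at 37 °C, inoculum OD 0.09 diluted 1:100 in 2× broth, per NCCLS guidelines.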

[3] = tested on: staphylococcal clinical isolates; experiment: Minimum Inhibitory Concentration (MIC) testing, broth microdilution, staphylococcal clinical isolates; assay type: cell-based; settings: for MIC: read-out: MIC Activity against clinical isolate
Method: Compounds of this invention were tested for antimicrobial activity by susceptibility testing in liquid media. MICs for compounds against each strain were determined by a broth microdilution method according to the National Committee for Clinical Laboratory Standards (NCCLS) guidelines. (NCCLS. 2000. Methods for dilution antimicrobial susceptibility tests for bacteria that grow aerobically—fifth edition. Approved standard M7-A5. NCCLS, Wayne, Pa.)
Briefly, test compounds are prepared in 100 μl of 1.6% DMSO solution in multiwell plates. Several bacterial colonies from a freshly streaked plate are transferred to an appropriate rich broth, such as Mueller Hinton. The cell suspension is adjusted to an optical density of 0.09 and further diluted 1:100 with warm 2× broth. This cell suspension is dispensed into the wells containing compound solution so that the final volume is 200 μl. The plates are incubated overnight (16-20 hours) at 37° C. and turbidity is scored by eye and quantified spectrophotometrically. The MIC is defined as the lowest concentration inhibiting visible growth.
Some of the Examples were also tested for activity against staphylococcal clinical isolates. […] Activities were again scored as ‘A’ if the MIC was ≦8 micrograms/ml, ‘B’ if the MIC was 16 to 64 micrograms/ml and ‘C’ if the MIC was greater than 64 micrograms/ml.

[4] = tested on: Staphylococcus aureus ATCC29213; experiment: Minimum Inhibitory Concentration (MIC) testing, broth microdilution, Staphylococcus aureus; assay type: cell-based; settings: Staphylococcus aureus ATCC29213; read-out: Staphylococcus aureus MICs Activity
Outline: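 Broth microdilution per NCCLS M7-A5 in Mueller Hinton broth, with compound in 1.6% DMSO and inoculum at OD 0.09 diluted 1:100. Plates incubated 16–20 h at 37°C. MIC is the lowest concentration with no visible growth; scored A ≤8, B 16–64, C >64 μg/ml.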

[5] = tested on: various bacterial species; experiment: Minimum Inhibitory Concentration (MIC) testing, broth microdilution, other bacterial species; assay type: cell-based
Outline: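 Broth microdilution per NCCLS M7-A5 in rich broth (e.g. Mueller Hinton), inoculum from OD 0.09 suspension diluted 1:100 in 2× broth. Incubation 16-20 hours at 37° C; turbidity scored visually and spectrophotometrically. MIC is the lowest concentration inhibiting visible growth, binned A ≦8, B 16-64, C >64 micrograms/ml.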

NC(=O)c1c(F)ccc(OCc2nc3cc(Cl)ccc3s2)c1F [Example 218, 3-[(5-Chloro-1,3-benzothiazol-2-yl)methoxy]-2,6-difluorobenzenecarboxamide]
Percent survival [1]: 100% | MIC [2]: < 8 µg/mL | MIC Activity against clinical isolate ([3]; S. aureus No. 753, Oxacillin S, Hospital): A (‘A’ if the MIC was ≦8 micrograms/ml) | MIC Activity against clinical isolate ([3]; S. aureus No. 757, Oxacillin R, Tet-R, MI-R, Hospital (tetM)): A (‘A’ if the MIC was ≦8 micrograms/ml) | MIC Activity against clinical isolate ([3]; S. aureus No. 1134, Oxacillin S, Hospital): A (‘A’ if the MIC was ≦8 micrograms/ml) | MIC Activity against clinical isolate ([3]; S. aureus No. 1135, Oxacillin R, Van-S, LZD-S, Hospital): A (‘A’ if the MIC was ≦8 micrograms/ml) | MIC Activity against clinical isolate ([3]; S. aureus No. 1651, Oxacillin R, Van-S, LZD-R, Hospital (G2576T, G)): A (‘A’ if the MIC was ≦8 micrograms/ml) | MIC Activity against clinical isolate ([3]; S. aureus No. 1652, Oxacillin R, Van-S, LZD-R, Hospital (T2500T, A)): A (‘A’ if the MIC was ≦8 micrograms/ml) | MIC Activity against clinical isolate ([3]; S. aureus No. 1662, Oxacillin S, Hospital): A (‘A’ if the MIC was ≦8 micrograms/ml) | MIC Activity against clinical isolate ([3]; S. aureus No. 1725, Oxacillin R, Van-S, LZD-R, Hospital (G2576T)): A (‘A’ if the MIC was ≦8 micrograms/ml) | MIC Activity against clinical isolate ([3]; S. aureus No. 1729, Oxacillin R, Tet-R, MI-R, Hospital): A (‘A’ if the MIC was ≦8 micrograms/ml) | MIC Activity against clinical isolate ([3]; S. aureus No. 2011, Oxacillin R, Tet-R, MI-S, Hospital (tetK)): A (‘A’ if the MIC was ≦8 micrograms/ml) | MIC Activity against clinical isolate ([3]; S. aureus No. 2012, Oxacillin R, Van-I, LZD-S, Hospital): A (‘A’ if the MIC was ≦8 micrograms/ml) | MIC Activity against clinical isolate ([3]; S. aureus No. 2018, Oxacillin R, Van-I, LZD-S, Hospital): A (‘A’ if the MIC was ≦8 micrograms/ml) | MIC Activity against clinical isolate ([3]; S. aureus No. 2142, Oxacillin R, CC-S, SXT-S, Community): A (‘A’ if the MIC was ≦8 micrograms/ml) | MIC Activity against clinical isolate ([3]; S. aureus No. 2143, Oxacillin R, Rif-R, Community): A (‘A’ if the MIC was ≦8 micrograms/ml) | MIC Activity against clinical isolate ([3]; S. aureus No. 2147, Oxacillin R, CC-S, SXT-S, Community): A (‘A’ if the MIC was ≦8 micrograms/ml) | MIC Activity against clinical isolate ([3]; S. aureus No. 2149, Oxacillin R, CC-R (iMLS), SXT-S, Community): A (‘A’ if the MIC was ≦8 micrograms/ml) | MIC Activity against clinical isolate ([3]; S. aureus No. 2150, Oxacillin R, CC-R, SXT-S, Community): A (‘A’ if the MIC was ≦8 micrograms/ml) | MIC Activity against clinical isolate ([3]; S. aureus No. 2158, Oxacillin R, CC-R, Doxy-I, Community): A (‘A’ if the MIC was ≦8 micrograms/ml) | MIC Activity against clinical isolate ([3]; S. aureus No. 2175, Oxacillin R, TMP-R, Community): A (‘A’ if the MIC was ≦8 micrograms/ml) | MIC Activity against clinical isolate ([3]; S. epidermidis No. 831, Oxacillin R): A (‘A’ if the MIC was ≦8 micrograms/ml) | MIC Activity against clinical isolate ([3]; S. epidermidis No. 1139, Oxacillin S): A (‘A’ if the MIC was ≦8 micrograms/ml) | MIC Activity against clinical isolate ([3]; S. epidermidis No. 1142, Oxacillin R): A (‘A’ if the MIC was ≦8 micrograms/ml) | MIC Activity against clinical isolate ([3]; S. epidermidis No. 1144, Oxacillin R): A (‘A’ if the MIC was ≦8 micrograms/ml) | MIC ([3]; Staphylococcus aureus, ATCC29213, S. aureus No. 0100, Oxacillin S, ATCC 29213): < 8 µg/mL | MIC ([3]; Staphylococcus aureus, S. aureus No. 1015, Oxacillin R, Van-S, LZD-S, Hospital): < 8 µg/mL | MIC ([3]; Staphylococcus epidermidis, S. epidermidis No. 835, Oxacillin S): < 8 µg/mL | MIC [4]: < 8 µg/mL | MIC ([5]; Bacillus cereus, ATCC14579, read-out: MIC Activity Bacillus cereus ATCC 14579): < 8 µg/mL | MIC ([5]; Staphylococcus epidermidis, ATCC12228, read-out: MIC Activity Staphylococcus epidermidis ATCC 12228): < 8 µg/mL | MIC ([5]; Staphylococcus haemolyticus, ATCC29970, read-out: MIC Activity Staphylococcus haemolyticus ATCC 29970): < 8 µg/mL | MIC ([5]; Staphylococcus saprophyticus, ATCC15305, read-out: MIC Activity Staphylococcus saprophyticus ATCC 15305): < 8 µg/mL
